Like-named read-outs stand apart in the source and are kept apart here.
Legend:
A2B receptor [1] = biological target: T1, A2B receptor (Homo sapiens, UniProt P29275); assay: Test 2: inhibitory activity to the A2B receptor, cAMP HTRF in CHO-K1/ADORA2B/Gα15 cells, NECA 0.1 uM; format: cell-based
T1 construct: host or cells: CHO-K1 (co-expressing Gα15)
T1 sequence (P29275 1-332): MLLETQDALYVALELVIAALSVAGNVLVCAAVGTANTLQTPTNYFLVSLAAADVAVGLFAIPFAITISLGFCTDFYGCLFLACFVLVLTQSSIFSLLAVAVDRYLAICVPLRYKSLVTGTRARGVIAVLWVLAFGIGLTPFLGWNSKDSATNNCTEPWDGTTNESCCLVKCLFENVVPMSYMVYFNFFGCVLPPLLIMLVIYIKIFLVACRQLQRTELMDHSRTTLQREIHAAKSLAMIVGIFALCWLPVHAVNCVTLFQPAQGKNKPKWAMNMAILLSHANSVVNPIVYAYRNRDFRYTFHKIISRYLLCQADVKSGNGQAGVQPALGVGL
Method: (§1) Test 2: Inhibitory Activities to the A2A Receptor and the A2B Receptor
(§2) Screening procedure was as follows:
(§3) 1. The cell density was adjusted with a serum-free medium to 6×10^5 cells/mL.
(§4) 3. The cells were placed still and cultured in an incubator at 37° C. for 30 min.
(§5) 4. 5 μL of cAMP-d2 and 5 μL of cAMP-ab (Cisbio, 62AM4PEB) were added in sequence.
(§6) 5. The 384-well plate was placed in dark at the room temperature for 1 h.
(§7) 6. The plate was read (Victor X5, PerkinElmer), data were analyzed by XLfit nonlinear regression, and IC50 values of the compounds were calculated.

A2A receptor [2] = biological target: T2, A2A receptor (Homo sapiens, UniProt P29274); assay: Test 2: inhibitory activity to the A2A receptor, cAMP HTRF in CHO-K1/ADORA2A/Gα15 cells, NECA 1 uM; format: cell-based
T2 construct: host or cells: CHO-K1 (co-expressing Gα15)
Method: as §1, §2, §3, §4, §5, §6, §7

A2B receptor [3] = biological target: T1, A2B receptor; assay: Test 1: inhibitory activity to the A2B receptor, cAMP HTRF in CHO-K1/ADORA2B/Gα15 cells, NECA 10 nM; format: cell-based
Method: (§8) Test 1: Inhibitory Activities to the A2A Receptor and the A2B Receptor CHO-K1/ADORA2A/Gα15 (GenScript, M00246) and CHO-K1/ADORA2B/Gα15 (GenScript, M00329) cells were cultured in a Ham's F-12 (Gibco, 31765092) medium containing 10% FBS, Zeocin (200 ug/mL), and Hygromycin B (100 ug/mL), or containing 10% FBS, G418 (400 ug/mL), and Hygromycin B (100 ug/mL) under culture conditions specified in the corresponding instruction. Screening procedure was as follows: 1. The cell density was adjusted with a serum-free medium to 6×10^5 cells/mL. 2. 5 uL of cell solution, 2.5 μL of NECA (Sigma, 119140-10MG), and 2.5 μL of compound solution were placed into each well of a 384-well plate (Greiner Bio-One, 784075) in sequence, the final concentration of NECA was 50 nM (CHO-K1/ADORA2A) or 10 nM (CHO-K1/ADORA2B), and the compound solution was subjected to 3-fold dilution from the final concentration of 3 uM. 3. The cells were placed still and cultured in an incubator at 37° C. for 30 min. 4. 5 μL of cAMP-d2 and 5 μL of cAMP-ab (Cisbio, 62AM4PEB) were added in sequence. 5. The 384-well plate was placed in dark at the room temperature for 1 h. 6. The plate was read (Victor X5, PerkinElmer), data were analyzed by XLfit nonlinear regression, and IC50 values of the compounds were calculated.

A2A receptor [4] = biological target: T2, A2A receptor; assay: Test 1: inhibitory activity to the A2A receptor, cAMP HTRF in CHO-K1/ADORA2A/Gα15 cells, NECA 50 nM; format: cell-based
Method: as §8

[5] = Test 3: in-vivo pharmacokinetics test in mice (plasma, LC/MS/MS); conditions: mouse, male ICR mice; for clearance: read-out: Clearance rate CLz
Method: Test 3: In-Vivo Pharmacokinetics Test
Mice were respectively administrated with the compound of the present disclosure by intravenous injection or intragastric administration, and the concentration of the drug in the plasma at different time points was determined by LC/MS/MS to explore pharmacokinetic behavior of the compound of the present disclosure in the mouse so as to evaluate the pharmacokinetic characteristics of the compound.
Experimental animals: healthy adult male ICR mice (weight: 25 to 40 g, 12 mice, mice in the intravenous injection group had free access to water and food, and mice in the intragastric administration group fasted overnight and had free access to water and food 4 h after administration), provided by Beijing Vital River Laboratory Animal Co., Ltd.
Administration method and dosage: before administration, animals that met the experimental requirements were selected, weighed, and marked. The ICR mice were subjected to tail vein administration (2 mg/kg, 5% DMSO, pH=4.5, 20% Captisol) or intragastric administration (10 mg/kg, 5% DMSO, pH=4.5, 20% Captisol).
Blood sample collection: before blood sample collection, each mouse was tied, and about 100 μL of blood was collected from each mouse subjected to administration at a preset blood collection time point through the jugular vein (for the mice subjected to intravenous administration: blood was collected from each mouse at a total of 9 time points, i.e., 0.083 h, 0.25 h, 0.5 h, 1 h, 2 h, 4 h, 6 h, 7.5 h, and 24 h after administration; and for the mice subjected to intragastric administration: blood was collected from each mouse at a total of 9 time points, i.e., 0.083 h, 0.25 h, 0.5 h, 1 h, 2 h, 4 h, 6 h, 7.5 h, and 24 h after administration). The blood was transferred to a test tube (1.5 mL) containing K2EDTA and centrifuged for 4 min (8,000 rpm, 4° C.) to separate out plasma, and the whole process was completed within 15 min after blood collection. All samples were stored in a refrigerator at −20° C. before sample analysis. The concentration of the drug was determined by LC/MS/MS.
Pharmacokinetic property parameters of the compounds of some examples of the present disclosure in the mice under the conditions of same dosage and intravenous administration are shown in Table 3:
Pharmacokinetic property parameters of the compounds of some examples of the present disclosure in the mice under the conditions of same dosage and intragastric administration are shown in Table 4: […]

[6] = intravenous (tail vein) 2 mg/kg, read-out: Area under the curve AUC0-t
[7] = intravenous (tail vein) 2 mg/kg
[8] = po, intragastric administration 10 mg/kg
[9] = po, intragastric administration 10 mg/kg, read-out: Area under the curve AUClast

T2 sequence (P29274 whole entry): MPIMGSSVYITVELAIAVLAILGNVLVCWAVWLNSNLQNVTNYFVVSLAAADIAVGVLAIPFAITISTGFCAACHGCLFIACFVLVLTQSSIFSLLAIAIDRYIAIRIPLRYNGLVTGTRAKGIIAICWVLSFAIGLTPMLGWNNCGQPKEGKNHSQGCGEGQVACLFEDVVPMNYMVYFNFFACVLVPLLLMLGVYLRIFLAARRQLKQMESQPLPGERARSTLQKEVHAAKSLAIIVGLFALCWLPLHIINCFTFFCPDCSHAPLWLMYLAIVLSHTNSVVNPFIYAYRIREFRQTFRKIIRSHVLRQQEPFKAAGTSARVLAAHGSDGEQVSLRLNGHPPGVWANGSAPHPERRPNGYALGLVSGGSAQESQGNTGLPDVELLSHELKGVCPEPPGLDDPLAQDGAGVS

SMILES | IC50 (A2B receptor [1]) | IC50 (A2A receptor [2]) | IC50 (A2B receptor [3]) | IC50 (A2A receptor [4]) | AUC(0-t) [5, 6] | clearance [5, 7] | Cmax [5, 8] | AUC(0-t) [5, 9]
Cc1c(C#N)cccc1-c1cc(-c2cn(Cc3cccc(C(C)(C)O)n3)nn2)nc(N)n1 [Compound D1, reference compound] | 0.075 µM | 0.065 µM | – | – | – | – | – | –
Cc1c(C#N)cccc1-c1nc(N)c(F)c(-c2cn(Cc3cccc(C(C)(C)O)n3)nn2)n1 [Compound L-1] | 0.062 µM | 0.024 µM | 0.003 µM | 0.001 µM | – | – | – | –
Cc1c(C#N)cccc1-c1nc(N)c(Cl)c(-c2cn(Cc3cccc(C(C)(C)O)n3)nn2)n1 [Compound L-3] | – | – | 0.004 µM | < 0.001 µM | 3600 ng·h/mL | 9.12 mL/min/kg | 15900 ng/mL | 22200 ng·h/mL
Cc1c(C#N)cccc1-c1nc(N)c(Cl)c(-c2cn(Cc3ccn(C)n3)nn2)n1 [Compound L-9] | – | – | 0.001 µM | 0.001 µM | 4680 ng·h/mL | 6.97 mL/min/kg | 6790 ng/mL | 23800 ng·h/mL
Cc1c(C#N)cccc1-c1nc(N)c(Cl)c(-c2cn(Cc3cc(C(C)(C)O)n(C)n3)nn2)n1 [Compound L-10] | – | – | 0.001 µM | 0.004 µM | 2740 ng·h/mL | 12.1 mL/min/kg | 12600 ng/mL | 18000 ng·h/mL
Cc1c(C#N)cccc1-c1nc(N)c(F)c(-c2cn(Cc3ccn(C4CC4)n3)nn2)n1 [Compound L-32] | – | – | 0.001 µM | < 0.001 µM | 2510 ng·h/mL | 13.3 mL/min/kg | 8980 ng/mL | 14800 ng·h/mL
Cc1c(C#N)cccc1-c1nc(N)c(F)c(-c2cn(Cc3ccn(CCF)n3)nn2)n1 [Compound L-38] | 0.05 µM | 0.018 µM | 0.002 µM | 0.001 µM | 2590 ng·h/mL | 12.7 mL/min/kg | 7210 ng/mL | 13300 ng·h/mL
Cc1c(C#N)cccc1-c1nc(N)c(F)c(-c2cn(Cc3ccn(CC(F)F)n3)nn2)n1 [Compound L-44] | 0.064 µM | 0.022 µM | 0.004 µM | 0.001 µM | – | – | – | –
Cc1c(C#N)cccc1-c1nc(N)c(F)c(-c2cn(Cc3ccn(C)n3)nn2)n1 [Compound L-67] | – | – | 0.007 µM | 0.003 µM | 2310 ng·h/mL | 14.2 mL/min/kg | 5720 ng/mL | 17300 ng·h/mL
Cc1c(C#N)cccc1-c1nc(N)c(F)c(-c2cn(Cc3nn(C)cc3F)nn2)n1 [Compound L-80] | – | – | 0.013 µM | 0.015 µM | – | – | – | –
Cc1c(C#N)cccc1-c1nc(N)c(F)c(-c2cn(Cc3cccc(C(C)(O)C(F)(F)F)n3)nn2)n1 [Compound L-81] | – | – | 0.023 µM | 0.004 µM | – | – | – | –
Cc1c(C#N)cccc1-c1nc(N)c(F)c(-c2cn(Cc3ccn(CC4CCCO4)n3)nn2)n1 [Compound L-83] | – | – | 0.007 µM | 0.003 µM | – | – | – | –
Cc1c(C#N)cccc1-c1nc(N)c(Cl)c(-c2cn(Cc3cccc(S(C)(=O)=O)c3)nn2)n1 [Compound L-84] | – | – | 0.024 µM | 0.004 µM | – | – | – | –
CCC(C)(O)c1cccc(Cn2cc(-c3nc(-c4cccc(C#N)c4C)nc(N)c3F)nn2)n1 [Compound L-85] | – | – | 0.004 µM | 0.002 µM | – | – | – | –
COC(C)c1cccc(Cn2cc(-c3nc(-c4cccc(C#N)c4C)nc(N)c3F)nn2)n1 [Compound L-86] | – | – | 0.001 µM | < 0.001 µM | – | – | – | –
Cc1c(C#N)cccc1-c1nc(N)c(F)c(-c2cn(Cc3ccn(C4COC4)n3)nn2)n1 [Compound L-88] | – | – | 0.008 µM | 0.002 µM | – | – | – | –
Cc1c(C#N)cccc1-c1nc(N)c(F)c(-c2cn(Cc3ccn(C4CCOCC4)n3)nn2)n1 [Compound L-89] | 0.068 µM | 0.011 µM | 0.005 µM | < 0.001 µM | – | – | – | –
Cc1c(C#N)cccc1-c1nc(N)c(F)c(-c2cn(Cc3ccn(C4CCN(C)C4)n3)nn2)n1 [Compound L-90] | – | – | 0.029 µM | 0.005 µM | – | – | – | –
Cc1c(C#N)cccc1-c1nc(N)c(F)c(-c2cn(Cc3cc(C4CC4)n(C)n3)nn2)n1 [Compound L-92] | – | – | 0.005 µM | 0.011 µM | – | – | – | –
Cc1c(C#N)cccc1-c1nc(N)c(Cl)c(-c2cn(Cc3ccn(C4COC4)n3)nn2)n1 [Compound L-93] | – | – | 0.004 µM | < 0.001 µM | – | – | – | –
Cc1c(C#N)cccc1-c1nc(N)c(F)c(-c2cn(Cc3nc(C(C)(C)O)ccc3O)nn2)n1 [Compound L-94] | 0.038 µM | 0.016 µM | – | – | – | – | – | –
Cc1c(C#N)cccc1-c1nc(N)c(F)c(-c2cn(Cc3ccn(CC#N)n3)nn2)n1 [Compound L-97] | – | – | 0.005 µM | 0.006 µM | – | – | – | –

Reference: patent US20230145793A1, “SUBSTITUTED PYRIMIDINE OR PYRIDINE AMINE DERIVATIVE, COMPOSITION THEREOF, AND MEDICAL USE THEREOF” (SHANGHAI HAIYAN PHARMACEUTICAL TECHNOLOGY CO., LTD., priority 2020, published 2023)
